What was measured:
[1] = system: primary cultures (neurons) from cerebral cortices of fetal Wistar rats; test: Biological Test 2: antagonism of the neuroprotective effect by MTA treatment (MTT); format: cell-based, rat; details: 0.75 mM MTA added 30 minutes before test compound, glutamate
Protocol: This biological test is performed to determine whether the neuroprotective effect of the test compounds is due to the activation of receptors of physiological active substances or not, by using antagonistic test for neutralizing antibody and Inhibitor for FGF, NT-3, NT-4/5, BDNF, IGF-I/II, NGF, PDGF and estrogen, respectively.
Chem., 268, 4244 (1993)]. Therefore, the neuroprotective effect of the test compounds is inhibited by treatment of MTA, this effect is depended by the signal transfer effect through the phosphorylation of FGF receptor.
The inhibitors of the various kinds of receptor were dissolved in the optimum concentration, and MTA was dissolved in the concentration of 7.5 mM, just before the using. 30 minutes before the treatment of the test compounds, the optimum concentration of each inhibitors or 0.75 mM of MTA was added, and the neuroprotective effect of the test compounds was determined by mean of MTT method.

[2] = system: cerebral edema (water content of cerebral hemisphere), Wistar rats; test: Biological Test 5: cerebral edema suppressing effect; format: in vivo; details: iv, 144 h, rat, post-TBI day 6, read-out: Cerebral edema suppressing rate (%); for inhibition in vivo at 3 mg/kg: 3 mg/kg intravenously just after the operation; for inhibition in vivo at 1 mg/kg: 1 mg/kg intravenously just after the operation
Protocol: Adult male Wistar rats weighing 210–230 g were used in the present study and housed in an artificially controlled environment with 12-hour light/dark cycle. Animals were anesthetized with pentobarbital sodium (50 mg/kg of body weight, i.p., Nembutal, Dinabbott, Japan) and placed in a stereotaxic apparatus. The skull was exposed and a hole was made on the parietal bone; 1.5 mm posterior and 0.8 mm lateral to the bregma. All procedures were performed under a surgery microscope to avoid excess irritation to the meninges and the underlying brain. A brass screw with a blunt tip (1.0 mm in diameter and 3.0 mm in length, Biomedica, Japan) was inset in the hole. The screw tip protruding intracranially was approximately 2.5 mm, which stuck into the parietal part of the right cerebrum through the meninges. In sham-operated rats, scalp was closed without attaching a screw to the hole. After surgery, all rats were kept in their original dens until sacrifice. Rats were allowed to feed chow and water ad libitum.
Under anesthesia the rat cerebral hemispheres of the target were processed for water content on post-TBI day 6 (n=6). The cerebral hemispheres dissected out were weighed, dried for 24 hours at 110 degree (Celsius) and then weighed again. The subtracted amount of the wet and dry weights was regarded as tissue water of the target, and utilized for the analysis of the cerebral edema.
The water content was calculated by using the following formula:
Water content (%) =[(wet weight of hemisphere—dry weight of hemisphere)/wet weight of hemisphere]×100
The test compounds were intravenously administered just after the operation via tail vein of the rats.

[3] = system: primary cultures (neurons) from cerebral cortices of fetal Wistar rats; test: Biological Test 1: neuroprotective effect against glutamate induced neuronal cell death (MTT); format: cell-based, rat; details: Compound: 1 μM; glutamate 1 mM; control group = 100%
Protocol: Cultures were maintained at 37 C. in a 90% air/10% CO2 humidified incubator. Glutamate was added to the culture at day 4 to the final concentration of 1 mM. […] MTT was dissolved in phosphate buffered saline (PBS, pH 7.4) at 5 mg/ml and filtered to sterilize and remove a small amount of insoluble residue present in some batches of MTT, and added to the cultures at a final concentration of 0.5 mg/ml.
The test compounds (1 μM) was added 24 hrs prior to glutamate treatment and simultaneously with glutamate.
Survival rate of living cells (%) =[(test compound group—glutamic acid treated group)÷(control group—glutamic acid treated group)]×100

[4] = system: primary cultures (neurons) from cerebral cortices of fetal Wistar rats; test: Biological Test 4: neuroprotective inhibiting effect by calbindin antisense oligonucleotide (MTT); format: cell-based, rat; details: 300 μM glutamic acid

Compound	Survival Rate (%) (Compound: 1 μl & MTA treatment) [1]	Survival Rate (%) (Compound: 1 μl) [3]	also measured
Cc1c(C)c(OCC(=O)N(C)C2CCN(C[C@@H]3C[C@H]3c3ccccc3)CC2)c(C)c(C)c1N (relative stereo) [Compound 13, 2-(4-Amino-2,3,5,6-tetramethylphenoxy)-N-methyl-N-[1-(trans-2-phenyl-1-cyclopropylmethyl)-4-piperidinyl]acetamide]	13	65	inhibition in vivo at 3 mg/kg [2]: 13.1%
Cc1c(C)c(OCC(=O)N(C)C2CCN(CC(=O)Nc3ccccc3)CC2)c(C)c(C)c1N [Compound 7, 2-(4-Amino-2,3,5,6-tetramethylphenoxy)-N-[1-(2-anilino-2-oxoethyl)-4-piperidinyl]-N-methylacetamide]	32	76	–
CCCCN1CCC(N(C)C(=O)COc2c(C)c(C)c(N)c(C)c2C)CC1 [Compound 9, 2-(4-Amino-2,3,5,6-tetramethylphenoxy)-N-(1-butyl-4-piperidinyl)-N-methylacetamide]	5	104	–
Cc1c(C)c(OCC(=O)N(C)C2CCN(CC(=O)c3ccccc3)CC2)c(C)c(C)c1N [Compound 10, 2-(4-Amino-2,3,5,6-tetramethylphenoxy)-N-[1-(2-phenyl-2-oxoethyl)-4-piperidinyl]-N-methylacetamide]	31	86	–
Cc1c(C)c(OCC(=O)N(C)C2CCN(CC(O)c3ccccc3)CC2)c(C)c(C)c1N (centres unmarked) [Compound 11, 2-(4-Amino-2,3,5,6-tetramethylphenoxy)-N-[1-(2-hydroxy-2-phenylethyl)-4-piperidinyl]-N-methylacetamide]	56	74	–
Cc1c(C)c(OCC(=O)N(C)C2CCN(CCOc3ccccc3)CC2)c(C)c(C)c1N [Compound 14, 2-(4-Amino-2,3,5,6-tetramethylphenoxy)-N-methyl-N-[1-(2-phenoxyethyl)-4-piperidinyl]acetamide]	–	–	inhibition in vivo at 1 mg/kg [2]: 18.7%
Cc1c(C)c(OCC(=O)N(C)C2CCN(CC(=O)N(C)c3ccccc3)CC2)c(C)c(C)c1N [Compound 15, 2-(4-Amino-2,3,5,6-tetramethylphenoxy)-N-methyl-N-{1-[2-(N-methylanilino)-2-oxoethyl]-4-piperidinyl}acetamide]	–	–	inhibition in vivo at 1 mg/kg [2]: 14.7%
Cc1c(C)c(OCC(=O)N(C)C2CCN(CCN3CCOCC3)CC2)c(C)c(C)c1N [Compound 16, 2-(4-Amino-2,3,5,6-tetramethylphenoxy)-N-methyl-N-{1-[2-(4-morpholinyl)ethyl]-4-piperidinyl}acetamide]	33	101	–
Cc1c(C)c(OCC(=O)N(C)C2CCN(CCOCC(O)c3ccccc3)CC2)c(C)c(C)c1N (centres unmarked) [Compound 17, 2-(4-Amino-2,3,5,6-tetramethylphenoxy)-N-{1-[2-(2-hydroxy-2-phenylethoxy)ethyl]-4-piperidinyl}-N-methylacetamide]	55	85	–
Cc1c(C)c(OCC(=O)N(C)C2CCN(Cc3ccc(C(N)=O)cc3)CC2)c(C)c(C)c1N [Compound 19, 4-({4-[[(4-Amino-2,3,5,6-tetramethylphenoxy)acetyl]-(methyl)amino]-1-piperidinyl}methyl)bezamide]	28	96	–
Cc1c(C)c(OCC(=O)N(C)C2CCN(C(C)Cc3ccccc3)CC2)c(C)c(C)c1N (centres unmarked) [Compound 22, 2-(4-Amino-2,3,5,6-tetramethylphenoxy)-N-methyl-N-[1-(1-methyl-2-phenylethyl)-4-piperidinyl]acetamide]	32	79	–
Cc1c(C)c(OC(C)C(=O)N(C)C2CCN(CC3CC3c3ccccc3)CC2)c(C)c(C)c1N (stereo not drawn) [Compound 26, 2-(4-Amino-2,3,5,6-tetramethylphenoxy)-N-methyl-N-[1-(trans-2-phenyl-1-cyclopropylmethyl)-4-piperidniyl]propanamide]	–	–	inhibition in vivo at 3 mg/kg [2]: 11.9%
Cc1c(C)c(OC(C)C(=O)N(C)C2CCN(CC(=O)N(C)c3ccccc3)CC2)c(C)c(C)c1N (centres unmarked) [Compound 27, 2-(4-Amino-2,3,5,6-tetramethylphenoxy)-N-methyl-N-{1-[2-(N-methylanilino)-2-oxoethyl]-4-piperidinyl}propanamide]	–	–	inhibition in vivo at 3 mg/kg [2]: 11.8%
Cc1c(C)c(OC(C)(C)C(=O)N(C)C2CCN(CCc3ccccc3)CC2)c(C)c(C)c1N [Compound 28, 2-(4-Amino-2,3,5,6-tetramethylphenoxy)-N,2-dimethyl-N-[1-(2-phenylethyl)-4-piperidinyl]propanamide]	46	103	–
Cc1c(C)c(C)c(OCC(=O)N(C)C2CCN(CCc3ccccc3)CC2)c(N)c1C [Compound 29, 2-(2-Amino-3,4,5,6-tetramethylphenoxy)-N-methyl-N-[1-(2-phenylethyl)-4-piperidinyl]acetamide]	–	–	inhibition in vivo at 1 mg/kg [2]: 13.8%
Cc1c(C)c(N)c(C)c(OCC(=O)N(C)C2CCN(C(=O)c3ccccc3)CC2)c1C [Compound 33, 2-(3-Amino-2,4,5,6-tetramethylphenoxy)N-(1-benzoyl-4-piperidinyl)-N-methylacetamide]	46	120	–
Cc1c(C)c(N)c(C)c(OCC(=O)N(C)C2CCN(Cc3ccc(C#N)cc3)CC2)c1C [Compound 34, 2-(3-Amino-2,4,5,6-tetramethylphenoxy)-N-[1-(4-cyano-benzyl)-4-piperidinyl]-N-methylacetamide]	21	74	–
Cc1c(C)c(NCC(=O)N(C)C2CCN(c3nc4ccccc4s3)CC2)c(C)c(C)c1N [Compound 37, 2-(4-Amino-2,3,5,6-tetramethylanilino)-N-[1-(1,3-benzothiazol-2-yl)-4-piperidinyl]-N-methylacetamide]	20	95	–
Cc1c(C)c(NCC(=O)N(C)C2CCN(c3ccc(F)cc3)CC2)c(C)c(C)c1N [Compound 38, 2-(4-Amino-2,3,5,6-tetramethylanilino)-N-[1-(4-fluorophenyl)-4-piperidinyl]-N-methylacetamide]	19	124	Survival Rate (%) [antisense (+): 5 μM] ([4]; 0.1 μM): 28%; Survival Rate (%) [antisense (−)] ([4]; 0.1 μM): 100%; Survival Rate (%) [antisense (+): 5 μM] ([4]; 1 μM): 33%; Survival Rate (%) [antisense (−)] ([4]; 1 μM): 106%
Cc1cc(C)c(NCC(=O)N(C)C2CCN(c3ccc(F)cc3)CC2)c(C)c1N [Compound 39, 2-(3-Amino-2,4,6-trimethylanilino)-N-[1-(4-fluoro-phenyl)-4-piperidinyl]-N-methylacetamide]	28	94	–
BFGF: Reference test substance in Table 10 (1 ng, 10 ng); not defined further; FGF is a physiologically active substance inducing CalbindinD-28k	–	–	Survival Rate (%) [antisense (+): 5 μM] ([4]; 1 ng): 8%; Survival Rate (%) [antisense (−)] ([4]; 1 ng): 71%; Survival Rate (%) [antisense (+): 5 μM] ([4]; 10 ng): 35%; Survival Rate (%) [antisense (−)] ([4]; 10 ng): 101%

Reference: US7067533B2, “Aminophenoxyacetamide derivatives and pharmaceutical composition containing thereof” (Daiichi Asubio Pharma Co., Ltd., priority 2000, dated 2006)
